Values after ≈ are worked out from the molar mass of the structure shown. Where two headings read alike, the source gives them in different places.
Legend:
MvitPBP1 = MvitPBP1 (Maruca vitrata, UniProt A0A0K0K7G1); assay: Fluorescence competitive binding assay with 1-NPN probe, recombinant MvitPBP1
Experimental: (§1) Fluorescence binding activity was determined according to the method of Sun et al.[33]. Emission fluorescence spectra were recorded on a Hitachi F-4500 at 25 °C in a right angle configuration, with a 1 cm light path quartz cuvette and 5 nm slits for both excitation and emission. The protein was dissolved in 20 mM Tris-HCl buffer (pH 7.4) and ligands were added as 1 mM methanol solutions. To measure the affinity of the fluorescent ligand 1-NPN to recombinant target proteins, a 2 μM protein solution in 20 mM Tris-HCl (pH 7.4) was titrated with aliquots of […] ligand in methanol to final concentrations of 2–16 μM. After each PBP or ligand was added into the reaction buffer, the mixture solution was incubated for 2 min at room temperature. The probe was excited at 337 nm and emission spectra were recorded between 380 and 450 nm. The affinities of the other ligands were measured in competitive binding assays. A solution of the protein and 1-NPN at a concentration of 2 μM was titrated with 1 mM methanol solutions of each competitor over concentration ranges of 2–24 μM, depending on the ligand (the solubilities are (EPA estimates): E10E12-16:Ald, 0.5 uM; E10-16:Ald, 0.3 uM; E10E12-16:OH, 0.17 uM; and E10-16:OH, 0.97 uM in ChemSpider). The dissociation constant for 1-NPN and the stoichiometry of binding were obtained by processing the data using Prism software. Dissociation constants of the competitors were calculated from the corresponding IC50 values (concentrations of ligands halving the initial fluorescence value of 1-NPN), using the equation: Ki = [IC50]/1 + [1-NPN]/K1-NPN, where [1-NPN] is the free concentration of 1-NPN and K1-NPN is the dissociation constant of the coplex protein/1-NPN.

MvitPBP2 = MvitPBP2 (Maruca vitrata, UniProt A0A1D6YJA8); assay: Fluorescence competitive binding assay with 1-NPN probe, recombinant MvitPBP2
Sequence of MvitPBP2 (A0A1D6YJA8 entry or part of it): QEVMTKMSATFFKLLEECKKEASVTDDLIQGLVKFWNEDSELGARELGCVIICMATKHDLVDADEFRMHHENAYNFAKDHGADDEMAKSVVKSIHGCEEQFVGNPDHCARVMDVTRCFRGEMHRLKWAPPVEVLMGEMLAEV
Experimental: as §1

[1] = system: MvitPBP3 (Maruca vitrata); assay: Fluorescence competitive binding assay with 1-NPN probe, recombinant MvitPBP3
Sequence of MvitPBP3 (Maruca vitrata) (A0A1D6YJA8 entry or part of it): as above
Experimental: as §1, with “A solution of the protein and 1-NPN at a concentration of 2 μM was titrated with 1 mM methanol solutions of each competitor over concentration ranges of 2–24 μM, depending on the ligand (the solubilities are (EPA estimates): E10E12-16:Ald, 0.5 uM; E10-16:Ald, 0.3 uM; E10E12-16:OH, 0.17 uM; and E10-16:OH, 0.97 uM in ChemSpider). The dissociation constant for 1-NPN and the stoichiometry of binding were obtained by processing the data using Prism software.” left out

MvitGOBP2 = system: MvitGOBP2; parameters: method as in PMID 26517714; details: read-out: Ligand concentration at which fluorescence intensity of the MvitGOBP2/1-NPN complex decreased to approximately 50%; cited from earlier work
[2] = parameters: method as in ChemSpider; details: ref ChemSpider; cited from earlier work
[3] = MvitPBP1, 2 μM protein and 1-NPN, 20 mM Tris-HCl pH 7.4, read-out: IC50 (ligand concentration displacing 50% of the fluorescence intensity of the MvitPBPs/1-NPN complex)
[4] = MvitPBP1, calculated from IC50, read-out: Ki (dissociation constant)
[5] = MvitPBP2; calculated from IC50; read-out: Ki (dissociation constant)
[6] = MvitPBP2; 2 μM protein and 1-NPN, 20 mM Tris-HCl pH 7.4; read-out: IC50 (ligand concentration displacing 50% of the fluorescence intensity of the MvitPBPs/1-NPN complex)

Sequence of MvitPBP1 (A0A0K0K7G1 entry or part of it): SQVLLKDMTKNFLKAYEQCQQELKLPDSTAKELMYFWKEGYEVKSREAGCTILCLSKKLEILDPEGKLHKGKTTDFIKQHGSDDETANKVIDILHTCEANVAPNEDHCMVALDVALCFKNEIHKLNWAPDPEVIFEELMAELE

Row | IC50 (MvitPBP1; [3]) | Ki (MvitPBP1; [4]) | Ki (MvitPBP2; [5]) | IC50 (MvitPBP2; [6]) | SMILES | Solubility (EPA estimates) [2] | also measured
1 |  |  |  |  | CC(=O)c1ccc(C(C)=O)cc1 [1,4-diacetyl benzene] |  | IC50 (MvitPBP1): 19.6 µM; Ki (MvitPBP1): 17.2 µM
2 |  |  |  |  | c1ccc(Nc2cccc3ccccc23)cc1 [1-NPN, N-phenyl-1-naphthylamine, reference compound] |  | Kd (MvitPBP1): 13 µM; Kd (MvitPBP2; read-out: Dissociation constant of the MvitPBP2/1-NPN complex; calculated by Scatchard plots): 11.9 µM
3 | 22.5 µM | 19.7 µM |  |  | Oc1cccc2[nH]ccc12 [1H-indol-4-ol] |  | 
4 |  |  |  |  | CCCCCCCCOC(=O)CCC [Butanoic acid octyl ester] |  | IC50 (MvitGOBP2): 8.5 µM
5 | 7.36 µM | 6.44 µM | 4.78 µM | 5.53 µM | CCCCC/C=C/CCCCCCCCC=O [E10-16: Ald, (E)-10-Hexadecenal] | 0.3 µM (≈ 0.0715 µg/mL) | 
6 | 7.64 µM | 6.69 µM | 5.9 µM | 6.82 µM | CCCCC/C=C/CCCCCCCCCO [E10-16: OH, (E)-10-Hexadecen-1-ol] | 0.97 µM (≈ 0.233 µg/mL) | 
7 | 5.68 µM | 4.97 µM | 5.09 µM | 5.89 µM | CCC/C=C/C=C/CCCCCCCCC=O [E10E12-16: Ald, (E,E)-10,12-Hexadecadienal] | 0.5 µM (≈ 0.118 µg/mL) | 

Row | SMILES | IC50 (MvitPBP1; [3]) | Ki (MvitPBP1; [4]) | Ki (MvitPBP2; [5]) | IC50 (MvitPBP2; [6]) | Solubility (EPA estimates) [2] | also measured
8 | CC(C=O)Cc1ccccc1 (stereo not shown) [2-methyl-3-phenylpropanal] |  |  | 18.1 µM |  |  | IC50 (MvitPBP2; read-out: IC50 (ligand concentration displacing 50% of the fluorescence intensity of the MvitPBPs/1-NPN complex); MvitPBP2; 2 μM protein and 1-NPN, 20 mM Tris-HCl pH 7.4): 21 µM; Ligand binding capacity (in words) [1]: bonded strongly; IC50 (MvitGOBP2): 3.81 µM
9 | CCC/C=C/C=C/CCCCCCCCCO [E10E12-16: OH, (E,E)-10,12-Hexadecadien-1-ol] | 8.84 µM | 7.73 µM | 5.11 µM | 5.91 µM | 0.17 µM (≈ 0.0405 µg/mL) | 

Source: publication PMC5048296, “Sex pheromone recognition and characterization of three pheromone-binding proteins in the legume pod borer, Maruca vitrata Fabricius (Lepidoptera: Crambidae)” (Scientific Reports, 2016)
